Assays:
[1] = target: T1, Alpha-1A adrenergic receptor (Homo sapiens, UniProt P35348)
T1 sequence (P35348 whole entry): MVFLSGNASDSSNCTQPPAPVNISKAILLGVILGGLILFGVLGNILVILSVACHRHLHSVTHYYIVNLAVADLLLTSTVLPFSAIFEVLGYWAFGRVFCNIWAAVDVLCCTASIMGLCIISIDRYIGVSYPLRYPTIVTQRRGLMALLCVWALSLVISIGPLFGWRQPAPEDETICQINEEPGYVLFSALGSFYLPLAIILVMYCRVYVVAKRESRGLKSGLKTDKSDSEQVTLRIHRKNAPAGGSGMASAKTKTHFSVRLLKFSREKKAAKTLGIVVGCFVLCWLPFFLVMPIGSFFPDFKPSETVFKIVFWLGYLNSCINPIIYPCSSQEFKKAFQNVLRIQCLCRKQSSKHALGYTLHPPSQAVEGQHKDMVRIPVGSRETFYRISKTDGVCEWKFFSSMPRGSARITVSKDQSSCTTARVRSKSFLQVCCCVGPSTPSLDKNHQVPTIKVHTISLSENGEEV

[2] = target: T2, Alpha-2A adrenergic receptor (Homo sapiens, UniProt P08913); assay type: functional, cell-based
T2 sequence (P08913 whole entry): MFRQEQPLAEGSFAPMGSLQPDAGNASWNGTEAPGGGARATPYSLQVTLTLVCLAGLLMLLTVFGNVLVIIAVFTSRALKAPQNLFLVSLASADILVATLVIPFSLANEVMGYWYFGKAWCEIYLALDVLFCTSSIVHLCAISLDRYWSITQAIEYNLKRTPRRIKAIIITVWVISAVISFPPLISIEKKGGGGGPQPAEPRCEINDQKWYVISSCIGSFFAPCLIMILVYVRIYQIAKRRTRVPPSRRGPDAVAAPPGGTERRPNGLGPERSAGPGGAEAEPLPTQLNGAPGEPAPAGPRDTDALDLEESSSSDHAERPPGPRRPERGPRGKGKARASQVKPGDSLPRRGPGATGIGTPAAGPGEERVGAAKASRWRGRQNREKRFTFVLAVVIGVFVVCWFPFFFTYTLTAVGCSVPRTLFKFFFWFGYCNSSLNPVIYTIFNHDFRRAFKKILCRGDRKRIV

[3] = target: T3, Alpha-2B adrenergic receptor (Homo sapiens, UniProt P18089)
T3 sequence (P18089 whole entry): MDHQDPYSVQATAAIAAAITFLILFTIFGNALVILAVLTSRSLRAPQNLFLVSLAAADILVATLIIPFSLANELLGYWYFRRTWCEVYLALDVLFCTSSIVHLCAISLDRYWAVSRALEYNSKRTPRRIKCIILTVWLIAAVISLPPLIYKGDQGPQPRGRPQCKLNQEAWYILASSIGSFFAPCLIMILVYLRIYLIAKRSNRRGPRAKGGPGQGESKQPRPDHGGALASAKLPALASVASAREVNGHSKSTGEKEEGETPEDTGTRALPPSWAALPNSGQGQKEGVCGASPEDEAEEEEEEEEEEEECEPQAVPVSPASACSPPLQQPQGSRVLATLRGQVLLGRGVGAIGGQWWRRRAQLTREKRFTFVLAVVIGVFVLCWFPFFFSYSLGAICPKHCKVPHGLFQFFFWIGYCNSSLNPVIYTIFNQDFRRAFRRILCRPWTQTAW

[4] = target: T4, Cholecystokinin receptor type A (Homo sapiens, UniProt P32238)
T4 sequence (P32238 whole entry): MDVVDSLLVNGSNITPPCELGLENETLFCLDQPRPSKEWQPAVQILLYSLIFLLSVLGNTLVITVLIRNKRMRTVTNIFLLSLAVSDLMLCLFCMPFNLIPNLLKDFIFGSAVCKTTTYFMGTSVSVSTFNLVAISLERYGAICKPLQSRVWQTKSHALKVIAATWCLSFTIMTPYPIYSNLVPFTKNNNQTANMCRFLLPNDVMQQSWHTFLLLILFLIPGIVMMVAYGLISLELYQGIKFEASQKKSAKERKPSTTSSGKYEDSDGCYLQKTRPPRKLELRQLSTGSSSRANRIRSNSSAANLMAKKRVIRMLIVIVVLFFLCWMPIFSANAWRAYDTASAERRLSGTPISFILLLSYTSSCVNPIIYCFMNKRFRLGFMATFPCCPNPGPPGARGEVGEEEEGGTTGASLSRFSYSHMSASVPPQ

[5] = target: T5, Muscarinic acetylcholine receptor M2 (Homo sapiens, UniProt P08172); assay type: functional, cell-based
T5 sequence (P08172 whole entry): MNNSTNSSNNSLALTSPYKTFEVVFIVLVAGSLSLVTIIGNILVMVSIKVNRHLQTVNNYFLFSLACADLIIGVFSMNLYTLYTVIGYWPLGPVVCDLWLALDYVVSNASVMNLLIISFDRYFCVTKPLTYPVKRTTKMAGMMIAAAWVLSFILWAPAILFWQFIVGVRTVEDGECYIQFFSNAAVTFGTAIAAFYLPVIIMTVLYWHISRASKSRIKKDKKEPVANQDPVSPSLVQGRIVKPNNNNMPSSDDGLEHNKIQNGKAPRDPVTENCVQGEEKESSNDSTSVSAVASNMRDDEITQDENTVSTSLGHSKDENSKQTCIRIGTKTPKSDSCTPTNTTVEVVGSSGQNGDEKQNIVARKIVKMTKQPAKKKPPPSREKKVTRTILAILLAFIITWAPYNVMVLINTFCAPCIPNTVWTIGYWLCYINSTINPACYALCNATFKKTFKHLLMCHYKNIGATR

[6] = target: Neuronal acetylcholine receptor subunit alpha-4 (Homo sapiens, UniProt P43681)
Sequence of Neuronal acetylcholine receptor subunit alpha-4 (P43681 whole entry): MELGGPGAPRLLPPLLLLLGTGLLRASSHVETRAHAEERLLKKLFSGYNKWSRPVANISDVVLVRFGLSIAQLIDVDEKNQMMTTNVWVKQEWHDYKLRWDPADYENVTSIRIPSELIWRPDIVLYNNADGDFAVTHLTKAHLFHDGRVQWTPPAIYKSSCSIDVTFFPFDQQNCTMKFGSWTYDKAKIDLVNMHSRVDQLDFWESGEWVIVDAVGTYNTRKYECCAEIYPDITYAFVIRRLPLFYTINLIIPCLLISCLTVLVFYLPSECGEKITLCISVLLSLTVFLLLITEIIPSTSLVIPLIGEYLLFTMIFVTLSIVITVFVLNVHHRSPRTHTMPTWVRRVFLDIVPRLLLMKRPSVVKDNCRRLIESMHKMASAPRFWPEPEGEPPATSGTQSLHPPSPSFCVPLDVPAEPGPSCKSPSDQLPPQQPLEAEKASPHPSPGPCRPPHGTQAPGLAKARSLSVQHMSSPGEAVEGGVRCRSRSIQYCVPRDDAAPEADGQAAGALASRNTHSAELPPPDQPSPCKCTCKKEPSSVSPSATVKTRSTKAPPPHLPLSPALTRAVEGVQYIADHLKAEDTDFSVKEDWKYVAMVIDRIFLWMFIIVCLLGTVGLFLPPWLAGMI

[7] = target: Gamma-aminobutyric acid receptor subunit alpha-1 (Rattus norvegicus, UniProt P62813); assay type: functional
Sequence of Gamma-aminobutyric acid receptor subunit alpha-1 (P62813 whole entry): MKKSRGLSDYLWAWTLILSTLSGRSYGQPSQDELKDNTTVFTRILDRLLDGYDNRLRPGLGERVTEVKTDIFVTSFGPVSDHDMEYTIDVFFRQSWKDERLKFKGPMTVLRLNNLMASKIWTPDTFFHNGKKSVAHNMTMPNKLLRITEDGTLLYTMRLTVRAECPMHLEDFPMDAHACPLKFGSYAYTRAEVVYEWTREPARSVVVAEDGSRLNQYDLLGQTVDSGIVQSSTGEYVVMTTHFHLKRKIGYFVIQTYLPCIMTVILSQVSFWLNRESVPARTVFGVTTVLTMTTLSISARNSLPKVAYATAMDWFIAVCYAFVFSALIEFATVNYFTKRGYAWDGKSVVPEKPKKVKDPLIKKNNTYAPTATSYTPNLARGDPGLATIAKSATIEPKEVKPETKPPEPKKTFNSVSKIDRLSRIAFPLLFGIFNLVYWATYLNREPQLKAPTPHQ

[8] = target: Glutamate receptor ionotropic, NMDA 1 (Rattus norvegicus, UniProt P35439)
[9] = target: Sodium-dependent serotonin transporter (Homo sapiens, UniProt P31645)
Sequence of Sodium-dependent serotonin transporter (P31645 whole entry): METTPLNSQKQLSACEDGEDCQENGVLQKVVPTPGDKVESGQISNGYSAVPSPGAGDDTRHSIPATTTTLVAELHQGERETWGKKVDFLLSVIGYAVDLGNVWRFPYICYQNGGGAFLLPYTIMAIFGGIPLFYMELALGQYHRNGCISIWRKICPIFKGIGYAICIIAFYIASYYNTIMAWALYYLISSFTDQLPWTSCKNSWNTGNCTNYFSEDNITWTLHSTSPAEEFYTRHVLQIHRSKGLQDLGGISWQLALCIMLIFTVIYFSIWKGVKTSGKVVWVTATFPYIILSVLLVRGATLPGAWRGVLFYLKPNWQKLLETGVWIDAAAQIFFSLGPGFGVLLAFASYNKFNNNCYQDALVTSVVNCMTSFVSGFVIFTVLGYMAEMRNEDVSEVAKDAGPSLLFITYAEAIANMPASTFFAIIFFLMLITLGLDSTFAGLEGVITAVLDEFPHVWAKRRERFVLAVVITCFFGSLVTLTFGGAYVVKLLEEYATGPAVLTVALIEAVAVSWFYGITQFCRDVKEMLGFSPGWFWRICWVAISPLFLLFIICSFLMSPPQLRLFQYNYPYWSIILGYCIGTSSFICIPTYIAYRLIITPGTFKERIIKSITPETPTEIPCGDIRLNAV
Note: assay procedure not described here.

Row | Molecule | AC50 [1] [µM] | AC50 [2] [µM] | AC50 [3] [µM] | AC50 [4] [µM] | AC50 [5] [µM] | AC50 [6] [µM] | AC50 [7] [µM] | AC50 [8] [µM] | AC50 [9] [µM]
1 | CCN(CC)C(C)C(=O)c1ccccc1 (centres undefined) [DIETHYLPROPION] | > 10 | > 10 | 13 | > 30 | > 10 | > 10 | > 10 | > 10 | > 30
2 | COC(=O)[C@H]1[C@H]2C[C@@H]3c4[nH]c5ccccc5c4CCN3C[C@H]2C[C@@H](OC(=O)c2cc(OC)c(OC)c(OC)c2)[C@@H]1OC [DESERPIDINE] | > 10 | > 10 | > 10 | 34.4 | > 10 | > 30 | > 10 | > 10 | > 10
3 | O=C(C[S+]([O-])Cc1ccco1)NC/C=C\COc1cc(CN2CCCCC2)ccn1 (centres undefined) [LAFUTIDINE] | > 10 | > 10 | > 10 | > 10 | > 10 | > 10 | > 10 | > 10 | > 10
4 | CCC1(CC)C(=O)NC(=O)N(C)C1=O [METHARBITAL] | > 10 | > 10 | > 10 | > 10 | > 10 | > 10 | > 10 | > 10 | > 10
5 | C=C(c1ccccc1OCc1cccc(Cl)c1)n1ccnc1 [CROCONAZOLE] | 9.4 | > 10 | > 10 | > 30 | > 10 | > 10 | > 10 | > 10 | 16.8
6 | CC(=O)OCC1=C(C(=O)O)N2C(=O)[C@@H](NC(=O)CSc3ccncc3)[C@H]2SC1 [CEPHAPIRIN] | > 10 | > 10 | > 10 | > 10 | > 10 | > 10 | > 10 | > 10 | > 10
7 | CC1NCCOC1c1ccccc1 (centres undefined) [PHENMETRAZINE] | > 10 | > 10 | > 10 | > 30 | > 10 | > 10 | > 10 | > 10 | > 30
8 | TEPRENONE | > 10 | > 10 | > 10 | > 30 | > 10 | > 10 | > 10 | > 10 | –
9 | Nc1nc(Cl)nc2c1ncn2[C@@H]1O[C@H](CO)[C@@H](O)[C@@H]1F [CLOFARABINE] | 29 | > 10 | > 30 | > 30 | > 10 | > 30 | > 10 | > 10 | > 30
10 | CCOC(=O)O[C@]1(C(=O)COC(=O)CC)CC[C@H]2[C@@H]3CCC4=CC(=O)C=C[C@]4(C)[C@H]3[C@@H](O)C[C@@]21C [PREDNICARBATE] | > 10 | > 10 | > 10 | > 10 | > 10 | > 10 | > 10 | > 10 | > 10

Reference: ChEMBL document CHEMBL5291721, “A preclinical secondary pharmacology resource illuminates target-adverse drug reaction associations of marketed drugs” (Nat Commun, 2023)
